Source: paper PMC9966268, “Genotoxicity of Novel Pyrazolo[4,3-e]tetrazolo[1,5-b][1,2,4]triazine Sulfonamides in Normal and Cancer Cells In Vitro” (International Journal of Molecular Sciences, 2023)

Legend:
[1] = tested on: WI-38; test: Alkaline comet assay; type: cell-based, human; conditions: WI-38, alkaline
Method: (§1) The alkaline version of the comet assay was performed according to Singh et al. (1988), with modifications. BxPC-3 and PC-3 cancer cells and normal human fibroblasts (WI-38) were seeded at a density of 1.2 × 10^5/mL onto 12-well plates. […] The experimental design included negative controls (cells treated with DMSO at 0.4% for 24 h at 37 °C). Cells were left for incubation for another 24 h (37 °C; 5% CO2). After exposure, they were transferred to Eppendorf tubes and centrifuged at 1400 rpm for 10 min at 4 °C. Afterward, the supernatant was removed, and the precipitate was diluted in PBS. The next steps were performed as previously described by Kontek and Nowicka.
(§2) After electrophoresis (conditions: 12 V, 300 mA, 25 min), slides were stained with 1 µg/mL of the intercalating agent 4′,6-diamidino-2-phenylindole (DAPI) and coverslipped. DNA damage was assessed with a fluorescence microscope at 360 nm using CellSens (Olympus) software. A total number of approximately 50 cells per slide was chosen for further analysis.
(§3) […] This parameter provides a very clear picture of what the actual appearance of the comets was like. […] The data were presented with an interquartile range and minimal and maximal values using Graphpad Prism 7. Statistical analysis of comet assay results was performed using Statistica software. The Kruskal–Wallis test was used to show a statistically significant difference between groups. Multiple comparisons using mean ranks for all groups module of Statistica software were used. A p-value less than 0.05 was considered statistically significant. In all groups, N > 200.

[2] = tested on: BxPC-3; test: Alkaline comet assay; type: cell-based, human; conditions: BxPC-3, alkaline, IC50 concentration, 24 h
Method: as §1, §2, §3

[3] = tested on: PC-3; test: Alkaline comet assay; type: cell-based, human; conditions: PC-3, alkaline, IC50 concentration, 24 h
Method: as §1, §2, §3

[4] = tested on: WI-38; test: Trypan blue staining; type: cell-based, human; conditions: WI-38, 0.5, 1 and 2 × IC50, 24 h, 37 °C
Method: (§4) Trypan blue is a diazo dye that has been used for viability assessment for years. Viable cells with undamaged cellular membranes are resistant to staining and thus allow the discrimination from blue-stained dead cells with disrupted membranes. Cells were seeded at a density of 1.5 × 10^5/mL onto 12-well plates. […] Cells were left for incubation for another 24 h (37 °C; 5% CO2). After exposure, they were transferred to Eppendorf tubes and centrifuged at 1400 rpm for 10 min at 4 °C. Afterward, the supernatant was removed, and the precipitate was diluted in PBS. Cell suspensions were mixed with 0.4% trypan blue solution in a 1:1 ratio. Approximately 300 cells were counted under a light microscope. The experiment was repeated three times. The results were represented as mean viability (%) with SD values.

[5] = tested on: BxPC-3; test: Trypan blue staining; type: cell-based, human; conditions: BxPC-3, 0.5, 1 and 2 × IC50, 24 h, 37 °C
Method: as §4

[6] = tested on: PC-3; test: Trypan blue staining; type: cell-based, human; conditions: PC-3, 0.5, 1 and 2 × IC50, 24 h, 37 °C
Method: as §4

[7] = tested on: PC-3; test: Neutral comet assay; type: cell-based, human; conditions: human, 24 h
Method: The majority of the neutral comet assay steps were performed analogously to the alkaline version except for the electrophoresis step. In contrast to the alkaline comet assay, electrophoresis was performed in a buffer comprising 100 mM TRIS and 300 mM sodium acetate with the pH of the solution adjusted to 9.0 by glacial acetic acid, as described previously by Bukowski et al.. Electrophoresis was run at 12 V, 50 mA for 60 min. Cells were washed with distilled water twice, stained with DAPI, and analyzed as described for the alkaline comet assay.
as §3

[8] = tested on: BxPC-3; parameters: method as in PMID 35682571; conditions: BxPC-3, 72 h incubation, MTT assay, mean; read-out: IC50 Value ± SD; cited from earlier work
[9] = tested on: PC-3; test: γH2AX staining; type: cell-based, human; conditions: PC-3, IC50 concentration, 24 h, foci per cell
Method: PC-3 cells were seeded at a density of 3 × 10^4/mL onto round coverslips placed on the bottom of 12-well plates. […] After 24 h, cells were washed once with cold PBS and placed in 4% paraformaldehyde (PHA) in PBS for 10 min. at room temperature. After that, PHA was removed, and cells were permeabilized using 0.1% Triton X-100 for 10 min at 20 °C, followed by incubation in a blocking solution (1 mL/well) containing 2.5% BSA, 1.5% goat serum, and 0.1% Triton X-100 in PBS for 10 min at room temperature. The blocking solution was removed, and coverslips containing cells were incubated with anti-γ-H2AX primary antibodies in blocking solution (anti-gamma-H2AX (phosphor-Ser139) (Abcam, Cambridge, UK; 1:100)) for 1 h at room temperature. Cells were transferred into 12-well plates, washed twice in PBS (5 min each), transferred to plates, and incubated with Goat anti-Mouse IgG Cross-adsorbed antibody, Alexa Fluor 488 (Invitrogen; 1:500 in PBS) for 1 h at room temperature. Cells were washed twice in PBS, followed by incubation with DAPI solution (1 µg/mL) for 10 min at room temperature and two washes in PBS and distilled water. Coverslips were removed using tweezers and placed on microscope slides with a drop of Fluoromount-G mounting medium. The slides were placed flat at room temperature for 24 h and then stored at 4 °C. The slides were analyzed with a fluorescence microscope using CellSens (Olympus) software. A total number of approximately 100 cells per slide was chosen for further analysis. The experiment was performed in duplicate. In BxPC-3 cells, inefficient or non-specific staining was observed despite attempts to optimize the assay. Therefore, we discontinued further work on these cells with the assay.
Images for green γ-H2AX (Alexa Fluor 488) and blue nuclear signals (DAPI) were taken using an Olympus camera. ImageJ software “find maxima” and “count” functions were used to determine the number of γ-H2AX foci in each cell. The “preview point selection” option and “prominence” were chosen based on the accuracy of coverage of γ-H2AX foci. Data were analyzed using GraphPad Prism 7.0 software system (GraphPad Prism Software Inc., USA) and Statistica software. The Kruskal–Wallis test was used to show a statistically significant difference between groups. Multiple comparisons using mean ranks for all groups module of Statistica software were used. A p-value less than 0.05 was considered statistically significant (p < 0.05). In all groups, N > 200.

With `Cc1nn(-c2ccc(S(=O)(=O)NCCN3CCOCC3)cc2)c2nn3nnnc3nc12` [MM134] the “DNA damage compared with negative and positive control (in words)” value ([1]; 0.5 × IC50, IC50, 2 × IC50, 24 h, p < 0.05) was “statistically significant increase in DNA damage”, the “mean tail DNA %” value ([1]; IC50 concentration, 24 h) was 4.19% and the “median tail DNA %” value ([1]; IC50 concentration, 24 h) was 1.5%. The “mean tail DNA %” value [2] was 10.9%, the “median tail DNA %” value [2] was 2.5% and the “mean tail DNA %” value [3] was 7.37%. For the same compound, the “median tail DNA %” value [3] was 1.03%, the cell viability [4] was “highest reduction in cell viability” and the cell viability [5] was “highest reduction in cell viability”. The cell viability [6] was “highest reduction in cell viability”, the “mean tail DNA % (double-strand breaks)” value [7] was 5.72% and the “median tail DNA % (double-strand breaks)” value [7] was 4.09%. For the same compound, the IC50 [8] was 320 ± 100 nM, the “mean number of γH2AX foci” value [9] was 25.8 and the “median number of γH2AX foci” value [9] was 21.
